Test results as given in publication PMC3558932 (Chemistry & biology, 2013).

Legend:
[1] = biological target: Rv0831c (Mycobacterium tuberculosis, UniProt O53842)
[2] = biological target: Rv0036c (Mycobacterium tuberculosis, UniProt P9WM91)
[3] = biological target: Rv0941c (Mycobacterium tuberculosis, UniProt P71568); conditions: 20 uM probe, lysate in PBS, 37 °C, 1 h; covalent
[4] = biological target: Rv0282 (Mycobacterium tuberculosis, UniProt P9WPI3); conditions: 20 uM probe, lysate in PBS, 37 °C, 1 h; covalent
Rv0282, sequence (P9WPI3 whole entry, looked up): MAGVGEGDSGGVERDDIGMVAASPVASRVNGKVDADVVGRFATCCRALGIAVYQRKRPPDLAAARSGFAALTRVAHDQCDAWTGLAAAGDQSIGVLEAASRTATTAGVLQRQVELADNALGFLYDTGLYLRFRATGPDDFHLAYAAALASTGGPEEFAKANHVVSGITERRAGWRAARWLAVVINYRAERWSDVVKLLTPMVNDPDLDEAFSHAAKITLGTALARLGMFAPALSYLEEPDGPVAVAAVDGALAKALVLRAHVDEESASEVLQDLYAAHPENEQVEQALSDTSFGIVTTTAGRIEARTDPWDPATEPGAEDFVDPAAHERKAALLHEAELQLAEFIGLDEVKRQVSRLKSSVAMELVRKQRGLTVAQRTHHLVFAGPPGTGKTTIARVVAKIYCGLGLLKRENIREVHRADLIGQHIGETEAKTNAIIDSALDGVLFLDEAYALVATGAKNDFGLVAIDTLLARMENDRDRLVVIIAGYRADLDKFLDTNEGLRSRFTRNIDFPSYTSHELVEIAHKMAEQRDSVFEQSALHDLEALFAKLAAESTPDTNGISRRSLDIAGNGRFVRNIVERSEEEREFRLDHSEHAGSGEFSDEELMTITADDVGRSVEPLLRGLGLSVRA

Rv0036c, sequence (P9WM91 whole entry): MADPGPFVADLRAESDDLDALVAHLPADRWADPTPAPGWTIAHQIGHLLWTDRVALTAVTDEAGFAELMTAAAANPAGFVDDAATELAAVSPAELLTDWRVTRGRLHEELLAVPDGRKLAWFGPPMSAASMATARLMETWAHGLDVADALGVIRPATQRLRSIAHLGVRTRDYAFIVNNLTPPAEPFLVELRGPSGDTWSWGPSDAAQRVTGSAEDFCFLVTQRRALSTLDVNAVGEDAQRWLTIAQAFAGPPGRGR

Row | Molecule | competition with ATP-ABP labelling, gel fluorescence [1] | competition with ATP-ABP labelling, gel fluorescence [2] | fold enrichment over control [3] | fold enrichment over negative control [4]
1 | Nc1ncnc2c1ncn2[C@@H]1O[C@H](COP(=O)(O)OP(=O)(O)OP(=O)(O)O)[C@@H](O)[C@H]1O [ATP] | ATP and ATPγS competed with probe binding | ATP and ATPγS competed with probe binding |  | 
2 | Nc1ncnc2c1ncn2[C@@H]1O[C@H](COP(=O)(O)OP(=O)(O)OP(O)(O)=S)[C@@H](O)[C@H]1O [ATPγS] | ATP and ATPγS competed with probe binding | ATP and ATPγS competed with probe binding |  | 
3 | ATP-ABP |  |  | 15 fold | 4 fold
